Measurements from patent US7179800B2 (priority 2002, dated 2007).
Read-outs that look alike come from different tables or passages of the source.

Tests used:
Male ICR mice = assay: Change in rectal temperature (RT) in mice; type: in vivo, mouse; conditions: Mus musculus, iv, mice, i.v.
CB1 receptor = CB1 receptor (Rattus norvegicus, UniProt P20272); assay: CB1 binding procedure: displacement of [3H]CP 55,940 from rat whole-brain P2 membranes; design: whole brain was homogenized and centrifuged; from tissue; host or cells: rat whole brain, P2 membrane fraction; conditions: for Ki: means ± SEM, [3H]CP 55,940, rat brain membranes, read-out: Ki (nM) CB1; for fold decrease in CB1 affinity: relative to the comparator analog
Sequence of CB1 receptor (P20272 whole entry): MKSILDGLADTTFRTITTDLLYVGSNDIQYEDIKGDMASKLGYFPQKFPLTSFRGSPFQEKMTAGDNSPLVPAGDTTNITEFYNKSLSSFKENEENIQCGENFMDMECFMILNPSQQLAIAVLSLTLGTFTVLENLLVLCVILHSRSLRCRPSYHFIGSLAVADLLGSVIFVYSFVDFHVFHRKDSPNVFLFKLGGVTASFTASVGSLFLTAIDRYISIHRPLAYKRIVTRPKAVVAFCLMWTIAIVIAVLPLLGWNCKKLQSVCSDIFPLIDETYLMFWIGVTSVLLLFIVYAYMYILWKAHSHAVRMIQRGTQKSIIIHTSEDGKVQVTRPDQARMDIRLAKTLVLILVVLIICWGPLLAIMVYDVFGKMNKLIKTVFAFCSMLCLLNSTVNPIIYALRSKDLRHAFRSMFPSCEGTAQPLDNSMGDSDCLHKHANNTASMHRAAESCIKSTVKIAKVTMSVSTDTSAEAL

[1] = 95% confidence limits in parentheses, read-out: ED50 RT (rectal temperature)

Row | SMILES | ED50 (Male ICR mice; Table 6, read-out: R.T. ED50) [mg/kg] | ED50 (Male ICR mice; [1]) [µmol/kg] | Ki (CB1 receptor) [nM] | fold decrease in CB1 affinity (CB1 receptor)
1 | CCCCCCC(C)(C)c1cc(O)c(C2CCCC(C)C2)c(O)c1 (mixture of isomers) [O-1657, 2-(3-Methylcyclohexyl)-5-(1′,1′-dimethylheptyl)-resorcinol] | 0.29 | 0.9 | 14 | 
2 | CCCCCCC(C)(C)c1cc(O)c([C@H]2CCCC(C)C2)c(O)c1 (single isomer, unassigned) [O-1826] | 1.16 | 3.6 | 40 | 
3 | CCCCCCC(C)(C)c1ccc(-c2cc(C)ccc2C(C)C)c(O)c1 [O-1376, 3-1′,1′-Dimethylheptyl-6-(2-isopropyl-5-methylphenyl)phenol] | 0.822 | 2.3 | 33 ± 4 | 
4 | CCCCCCC(C)(C)c1cc(O)c(C2CCCCC2)c(O)c1 [O-1422, Cyclohexyl-5-(1′,1′-dimethylheptyl)-resorcinol] | 0.194 | 0.6 | 11 ± 2 | 
5 | CCCCCCC(C)(C)c1cc(O)c(C2=CCCCC2)c(O)c1 [O-1423] | 2.94 | 9 | 97 ± 5 | 
6 | CCCCCCC(C)(C)c1cc(O)c(C2CCSCC2)c(O)c1 [O-1425] | 4.53 | 13 | 153 ± 17 | 14 fold
7 | CCCCCCC(C)(C)c1cc(O)c(C2CCCCC2C)c(O)c1 (centres unmarked) [O-1658, 2-(2-Methylcyclohexyl)-5-(1′,1′-dimethylheptyl)-resorcinol] | 0.12 | 0.3 | 16 ± 2 | 
8 | CCCCCCC(C)(C)c1cc(O)c(C2CCC(C)CC2)c(O)c1 (centres unmarked) [O-1659, 2-(4-Methylcyclohexyl)-5-(1′,1′-dimethylheptyl)-resorcinol] | 1.12 | 3.3 | 45 ± 1 | about 5 fold
9 | CCCCCCC(C)(C)c1cc(O)c(C2C3CC4CC(C3)CC2C4)c(O)c1 (centres unmarked) [O-1660, 2-(2-Adamantyl)-5-(1′,1′-di-methylheptyl)-resorcinol] | 1.73 | 4.6 | 7 ± 1 | 
10 | CCCCCCC(C)(C)c1cc(O)c(C2CCSC2)c(O)c1 (centres unmarked) [O-1661, 2-(Tetrahydrothiophen-3-yl)-5-(1′,1′-dimethylheptyl)-re-sorcinol] | 7.78 | 24 | 138 ± 4 | 
11 | CCCC(C)(C)c1cc(O)c(C2CCCC(C)C2)c(O)c1 (centres unmarked) [O-1890, 2-(3-Methylcyclohexyl)-5-(1′,1′-dimethylbutyl)-resorcinol] | 21 | 72 | 96 ± 4 | 
